From paper PMC10619691, “Effect of cyclic substituents on the anti-cancer activity and DNA interaction of ruthenium(II) bis-phenanthroline dipyridoquinoline” (Frontiers in Molecular Biosciences, 2023)

Legend:
[1] = partition coefficient (log P), shake-flask method; assay type: physicochemical; settings: phosphate buffered saline (pH 7.4) / 1-octanol
Excerpt: The role of lipophilicity in the activity of ruthenium (II) polypyridyl complexes is one that has been extensively reported ([Notaro and Gasser, 2017]). […] Based on this, we carried out a partition coefficient (log P) test using a shake-flask method to determine whether the marginal structural differences between VNK-754, VNK-572, and POW-12A affect their lipophilicity and to examine whether such a difference in lipophilicity confers any advantage to their anti-cancer activity. The log P results, as presented in Table 2, clearly show VNK-572 (0.014) and POW-12A (0.077) to be more lipophilic than VNK-754 (−0.874). […] Thus, along with varied DNA intercalating properties, this explains, in part, why there are appreciable differences in the cytotoxic effects of VNK572 and POW12A compared to VNK-754, even though they are generally similar in structure. For example, VNK-572 with an additional benzene ring can penetrate the bi-lipid-layered cell membrane better and achieve higher cellular and nuclear concentrations than VNK-754, producing a greater anti-tumor effect.
To study the lipophilicity of our complexes, we used the shake-flask method at 25.0 °C ± 0.1°C in line with the previously reported protocol ([Dubey et al., 2017]). Equal volumes of the aqueous phase (phosphate buffered saline, pH 7.4) and the 1-octanol phase were pre-saturated with each other overnight. A known amount of the complexes (respectively) was added to the aqueous phase, ensuring our final concentration was within the range of UV spectroscopic analysis; then, an equal volume of the pre-saturated […] phase was added. Both phases were then mixed in a conical flask and left shaking on a thermostatic shaker at a speed of 100 rpm overnight at room temperature. […] Considering that lipophilic compounds will partition into the octanol phase, the concentration of the complexes left in the aqueous phase was analyzed, respectively, by UV spectroscopy; then, the Log P value was calculated: Logp = Log10 ([solute] un-ionized octanol/[solute] un-ionized water).

HS DNA = assay: DNA binding by fluorescence (emission) titration; parameters: species or system herring; settings: for binding constant / binding site size: emission titrations; for n′ (binding site size): titrating concentrated HS DNA into 5 μM solutions of ruthenium complex, direct fitting
Excerpt: VNK-754 is a structural analog of [Ru(phen)2dpq]^2+, a complex that intercalates the dpq (dpq = dipyrido[3,2-f:2′,3′-h]quinoxaline) ligand from the minor groove ([Greguric et al., 1997]). The dpq ligand presents a sufficiently large planar surface to allow classical intercalation, and it might be expected that extending the surface with substituents would enhance such binding. However, while this is observed with the addition of aromatic rings, as in the case of [Ru(phen)2dppz]^2+, this may not be true for the addition of a saturated ring that distorts the planarity of the extended ring system (Figure 6). Studies were thus undertaken to establish the binding modes of POW-12A and VNK-572. All complexes bound strongly to DNA, and binding constants and binding site sizes were determined from emission titrations to be 1.91 × 10^6 M^–1 and 0.38 Ru/base for POW-12A, and 1.46 × 10^6 M^–1 and 0.24 Ru/base for VNK-572 (Table 3). […] The smallest binding site size a pure intercalator can have is four bases. The binding site size of POW-12A is smaller than four bases; this is not consistent with binding via pure intercalation.
PBS buffer was prepared with NaCl (137 mM), KCl (2.70 mM), Na2HPO4 (10.1 mM), and KH2PO4 (1.77 mM) in nanopure water. Using HCl, the pH was adjusted to 7.40. PBS buffer was used for all photophysical experiments. For linear dichroism experiments, a PBS buffer without potassium was used. Solutions of open-circle and supercoiled φX174 DNA were obtained from New England Biolabs. Sodium salts of high-molecular-weight herring sperm (HS-DNA) and calf thymus (CT-DNA) from Sigma were dissolved in PBS buffer, and concentrations were determined spectrophotometrically using the extinction coefficient ε260 nm = 6600 M^−1 cm^−1 for nucleobase concentration. The alternating polynucleotide polydeoxyadenylic-thymidylic acid ([poly(dA-dT)]2) and polydeoxyguanylic-cytidylic acid ([poly(dG-dC)]2) from NUNABIO ([Whitfield et al., 2015]) were dissolved in PBS buffer, and their concentrations were determined using the extinction coefficients ε262 nm = 6700 M^−1 cm^−1 and ε254 nm = 8400 M^−1 cm^−1, respectively. Direct fitting to raw data from fluorescence titration experiments (titrating concentrated HS DNA into 5 μM solutions of ruthenium complex) was used to give the binding constant (KB) and binding site size (n′). The following equation is derived from the Scatchard equation: ∝^2∙KB/PD−KB/PD+1/PDDt+KB∙n^′+KB∙n^′ = 0, where Db/Dt=I−I0/I∞−I0 , PD is the phosphate: dye ratio, KB is the binding constant (M^−1), and n′ is the binding site size (bases per compound). The equation is in the form of a quadratic equation, where a = KB[Dt]/PD, b = −(KB/PD+1/PD[Dt ] +KB∙n′), and c = KBn′. The positive solution to this quadratic equation gives values for α, from which theoretical intensities at each PD are calculated. The least squares regression method was used, minimizing the squared residuals of the theoretical and experimental intensities and floating the values of KB, I0, I∞, and n′.

HeLa cells [2] = assay: cellular localization by confocal fluorescence microscopy; assay type: cell-based, human; settings: 50 μM, 2 h incubation, co-localization with DAPI
Protocol: This was further confirmed by the co-localization of these complexes with a nuclear counterstain (DAPI) (Figure 2).
Fluorescence microscopy was used to study cellular localization. HeLa cells were seeded on autoclaved coverslips in the 6-well plate and incubated at 37°C for 48 h, after which the culture media were replaced with media containing VNK-572 (50 μM) and VNK-754 (50 μM), respectively, and further incubation was performed for 2 h. Following this, the cells were fixed with Carnoy’s solution and washed twice with PBS thereafter. Finally, the HeLa cells were counterstained with DAPI, and the seeded coverslips were inverted and placed on slides for examination. A Leica confocal microscope was used for the observation of the samples using a magnification of ×63.

HeLa cells [3] = assay: Annexin V apoptosis assay; assay type: cell-based, human
Protocol: To further analyze the cytotoxicity mechanisms, annexin V was used to determine whether VNK-572/cisplatin exerts an anti-cancer activity through apoptosis. The Annexin V assay was performed following the established procedure. The steps included treating the cells with the complex for 24, 48, and 72 h in 6-well plates and incubating at 37°C. The cells were then rinsed with PBS, trypsinized, and neutralized using culture media. The cells were then spun in the centrifuge at 2500 RPM for 3 min, and the supernatant was discarded. The cell pellet was then washed first with PBS and then with ×1 binding buffer. The cells were then suspended in approximately 1 mL of binding buffer (1–5 million cells), and approximately 100 ul of this suspension was stained with 5 μL of annexin V-APC dye for 15 min. The cells were then washed with binding buffer and resuspended in 200 μL of binding buffer before being stained with 5 ul of propidium iodide. The cells were then analyzed using a flow cytometer within 4 h.

## F[P-](F)(F)(F)(F)F.F[P-](F)(F)(F)(F)F.[Ru+2].c1cnc2c(c1)c1ncc3c(c1c1cccnc12)CCC3.c1cnc2c(c1)ccc1cccnc12.c1cnc2c(c1)ccc1cccnc12 [POW-12A]
[1]
  LogP: 0.077
HS DNA
  binding constant: 1.91 × 10^6 M^–1
  binding site size: 0.38 Ru/base
  n′ (binding site size): 2.63 bases per compound
HeLa cells [2]
  cellular localization: penetrate the nucleus

## F[P-](F)(F)(F)(F)F.F[P-](F)(F)(F)(F)F.[Ru+2].c1cnc2c(c1)c1ncc3c(c1c1cccnc12)CCCC3.c1cnc2c(c1)ccc1cccnc12.c1cnc2c(c1)ccc1cccnc12 [VNK-572]
[1]
  LogP: 0.014
HeLa cells [3]; 72 h of treatment, control 2%
  Q2 (propidium iodide and annexin V APC-stained cells), late-stage apoptosis: 11%
HeLa cells [3]; 72 h of treatment, control 14% (VNK-572), 13% (cisplatin)
  Q4 (annexin V APC), early apoptosis: 26%
HeLa cells [3]; after 72 h of treatment
  Q1 (necrosis): < 6%
HS DNA
  binding constant: 1.46 × 10^6 M^–1
  binding site size: 0.24 Ru/base
  n′ (binding site size): 4.16 bases per compound
HeLa cells [2]
  cellular localization: penetrate the nucleus
